Measurements taken from publication PMC8397403, “Physiologically Based Pharmacokinetic Modeling of Transporter-Mediated Hepatic Disposition of Imaging Biomarker Gadoxetate in Rats” (Molecular Pharmaceutics, 2021).
Values joined by “and” are separate entries in the source; they are usually repeats but may differ in a detail not shown here. Identical values can stand only once. Marks after values point to notes of the source that are not given here.

What was measured:
[1] = Top-down PBPK model fitting to DCE-MRI ΔR1 data, gadoxetate administered alone; format: in vivo, rat
Experimental: (§1) DCE–MRI data generated using the 3D Fast Low Angle Shot RF-spoiled gradient echo sequence (FLASH) protocol in male Wistar-Han rats were used for assessing the PBPK IVIVE performances and for obtaining some of the PBPK parameters within the bottom-up and top-down approaches, respectively. The DCE–MRI data were acquired in a multicenter study at two magnetic field strengths, 4.7 and 7 T. Gadoxetate was administered at a dose of 25 μmol/kg, either alone or 1 h after IV administration of 10 mg/kg rifampicin. When gadoxetate was administered alone (control arm), 43 profiles of blood, spleen, and liver measured at a field strength of 4.7 T and 52 profiles of blood, spleen, and liver measured at 7 T were available. In the case of gadoxetate administered with rifampicin, 7 blood, spleen, and liver profiles at a field strength equal to 4.7 T and 6 at 7 T were available. All gadoxetate DCE–MRI data and study protocols are detailed in a companion paper (Hines et al. in submission).
The measured quantity in DCE–MRI is ΔR1 (s^–1), the change of the water proton longitudinal relaxation rate, a magnetic property of the tissues, due to the presence of the contrast agent. In sufficiently homogeneous tissues, the tissue concentration of the contrast agent as a function of time, c(t), can be derived from ΔR1(t). The relationship between c(t) and ΔR1(t) depends on the physical interactions between the contrast agent molecules and the tissue.[39] For a given tissue τ, the relation between ΔR1,τ(t) and cτ(t) is generally considered to be linear, as in eq 4.[39],[40] [drawing 4] 4
A reduced PBPK model was developed to describe the PK of gadoxetate in rats; a permeability-limited liver model was implemented capturing relevant processes, as done previously.[6],[41] The compartments represent the blood, spleen, splanchnic organs, liver interstitial space, hepatocytes, and the rest of the body (ROB) vascular and extravascular spaces. The ROB compartment includes muscles, skin, bones, and fat among others. Details of model equations and physiological parameters values are reported in the Supporting Information, Sections 2, 3, and 5.
Standard kinetic models used for MRI contrast agents generally describe the organs by using three compartments: plasma, interstitial, and intracellular spaces.[12],[42],[43] Gadoxetate distributes only in the extracellular space of all the organs; liver is the exception, where gadoxetate undergoes active uptake into the hepatocytes.[44] Therefore, in the gadoxetate PBPK model, the volume of all the compartments, except the blood and the liver, corresponded to the organ extracellular space, that in turn was considered to be composed of the blood within the organ and the interstitial space. For highly vascularized and perfused organs with fenestrated capillaries (e.g., liver), the exchange between the plasma and the interstitial space is generally considered to be fast.[12],[19] Therefore, for liver, spleen, and splanchnic compartments, the extracellular volumes were considered to be the sum of the blood within the organ and the interstitial space volumes. […] A permeability limitation between the vascular and interstitial space was, therefore, assumed for the ROB compartment, as shown in eq 5. [drawing 5] 5 cb, crob,v and crob,ev [μmol/L] are the gadoxetate concentration in blood and ROB vascular and extravascular compartments; Vrob,v and Vrob,ev [L] are the ROB vascular and extravascular compartment volumes, respectively; and PS [L/h] is the permeability surface product. […]

[2] = tested on: active uptake transport of gadoxetate into the liver; assay: Simultaneous PBPK fitting of gadoxetate DCE-MRI data in control and rifampicin phases; format: in vivo, rat; settings: value (CV)
Experimental: as §1
The DCE–MRI data used in this study were reported as ΔR1. Therefore, the relationship between the compartmental concentrations represented by the PBPK model state variables and the ΔR1 measurements for the blood, liver, and spleen needed to be described. The linear relationship in eq 4 is not valid for ΔR1 of the liver, ΔR1,liv, because intracellular and extracellular tissue compartments have different relaxivities. To derive ΔR1,liv, a volume fraction-weighted mean of the contributions of the gadoxetate concentration in all the compartments used to model the liver was performed.[40] In the spleen, the entire distribution space was supposed to have the same relaxivity as blood and, therefore, eq 4 can be applied directly to derive spleen concentrations from ΔR1,spl. Concerning the blood, the blood value for r1 in Table 1 allows ΔR1,b to be directly related to the blood concentration. The relations between ΔR1,liv, ΔR1,spl, and ΔR1,b and the concentrations of the PBPK compartments are shown in eq 7. [drawing 7] 7 cspl,extr is the extracellular concentration in the spleen and Vspl,extr is the extracellular volume of the spleen and Vliv and Vspl are the whole volumes of liver and spleen. r1,liv,extr and r1,spl,extr were assumed to be equal to r1,b, as described in Hines et al.
In fact, each of the data are acquired during a time interval Δt, which was 57 s in the current dataset. To account for this characteristic when performing the parameter estimation, the residuals were calculated as the difference of the observed ΔR1 corresponding to a given time interval minus the mean of the simulated PBPK ΔR1 within the same interval, as explained in the Supporting Information, Section 4.
The extent of interaction with rifampicin was estimated by performing a simultaneous fitting of gadoxetate ΔR1 in the control and inhibitory phase. In this analysis, PS was considered the same for both phases, whereas the other parameters were separately estimated in the absence (CLactive and CLbiliary) and in the presence of rifampicin (CLactive,inh and CLbiliary,inh). CLbiliary,inh was considered to account for possible inhibition of Mrp2 in rat by rifampicin, as previously reported.[45] To understand the impact of the inclusion of the liver-imaging data on the parameter optimization, the simultaneous estimation was also performed considering only the blood data.
All the PBPK analyses were performed in MATLAB R2020a,[50] the ordinary differential equations were solved with the function “ode15s”, while the parameter optimization was performed with the function “lsqnonlin”. The uncertainty of the parameters estimate was evaluated with the case-bootstrap,[51] using 1000 samples.

[3] = fit to blood, spleen and liver ΔR1, gadoxetate alone, mean (CV %) of 1000 bootstrap samples
[4] = gadoxetate alone, blood data only, value (CV)
[5] = gadoxetate alone, blood, spleen, liver ΔR1, CLr also estimated, value (CV)
[6] = gadoxetate 1 h after rifampicin i.v. 10 mg/kg, simultaneous fit
[7] = simultaneous fit, 5-compartment liver model
[8] = with rifampicin, 5-compartment liver model

CLactive, top-down estimate ([1]; fit to blood, spleen and liver ΔR1, gadoxetate alone 25 μmol/kg, mean (CV %) of 1000 bootstrap samples): 2.17 (11.5%) ^b L/h | CLbiliary, top-down estimate [1, 3]: 0.07 (3.2%) ^b L/h | PS, top-down estimate [1, 3]: 0.62 (6.3%) ^b L/h | CLactive, estimated only with ΔR1 blood data [1, 4]: 1.88 (23.2 %) L/h and 1.88 L/h | PS, estimated only with ΔR1 blood data [1, 4]: 1.92 (20.8 %) L/h and 1.92 L/h | CLactive, simultaneous estimation with CLr [1, 5]: practically unidentifiable | CLbiliary, simultaneous estimation with CLr [1, 5]: 0.07 (2.6 %) L/h | PS, simultaneous estimation with CLr [1, 5]: 0.58 (8.3 %) L/h | CLactive, simultaneous estimation with CLr ([1]; gadoxetate alone, blood, spleen, liver ΔR1, CLr also estimated, value (CV), listed as Gadoxetate): 3.11 (>1000 %) L/h | CLr, estimated ([1]; gadoxetate alone, blood, spleen, liver ΔR1, value (CV)): 0.40 (24.6 %) L/h | CLactive, estimated value (with rifampicin) (CLactive,inh) [2, 6]: 0.095 (16.1%) L/h | CLbiliary, estimated value (with rifampicin) (CLbiliary,inh) [2, 6]: 0.08 (16.7%) L/h | CLactive, estimated value (control) ([2]; simultaneous fit of control and rifampicin phases, blood, spleen, liver ΔR1): 2.38 (13.6%) L/h | CLbiliary, estimated value (control) ([2]; simultaneous fit of control and rifampicin phases): 0.07 (3.1%) L/h | PS, blood ΔR1 only ([2]; simultaneous fit using only blood ΔR1, both groups): 2.07 (20 %) L/h | CLactive control group, blood ΔR1 only ([2]; simultaneous fit using only blood ΔR1): 1.82 (30 %) L/h and 1.82 L/h | CLactive control group, 5-compartment liver model [2, 7]: 1.45 (7.4 %) L/h | CLbiliary control group, 5-compartment liver model [2, 7]: 0.07 (3.2 %) L/h | PS, 5-compartment liver model ([2]; simultaneous fit, both groups): 0.81 (7.2 %) L/h | PS, estimated value ([2]; simultaneous fit, same for both phases): 0.71 (5.7%) L/h | CLactive rifampicin group (CLactive,inh), blood ΔR1 only ([2]; with rifampicin 10 mg/kg, simultaneous fit using only blood ΔR1): 0.29 (45 %) L/h and 0.29 L/h | CLactive rifampicin group, 5-compartment liver model [2, 8]: 0.065 (28.2 %) L/h | CLbiliary rifampicin group, 5-compartment liver model [2, 8]: 0.07 (26.6 %) L/h
SMILES: CCOc1ccc(C[C@@H](CN(CCN(CC(=O)[O-])CC(=O)[O-])CC(=O)[O-])N(CC(=O)[O-])CC(=O)[O-])cc1.[Gd+3].[H+].[H+] [gadoxetate]
